Reference: patent publication US12077503B2, “Substituted cyclic amides and their use as herbicides” (FMC CORPORATION, priority 2015, dated 2024)

What was measured:
Format in all cases: in vivo
[1] = tested on: giant foxtail (Setaria faberi); experiment: Test G Post-Emergence Protocol; settings: Setaria faberi, post-emergence, 312 h, read-out: Foxtail, Giant damage rating; for pest or weed control at 15.625 g/ha: 15.625 g ai/ha, evaluated after 13 days (100=total damage to plant; 0=no damage to plant); for pest or weed control at 62.5 g/ha: 62.5 g ai/ha
Outline: (§1)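 Pot-grown seedlings, 8 days old, raised in a glasshouse at 24/16 °C day/night with 14 h light and 65% humidity, were sprayed post-emergence with test compound in acetone/water (50:50) plus 0.5% Tween 20 at 15.625, 62.5 or 250 g/ha. Damage was scored visually 13 days later on a 0–100 scale (100 = total damage).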

[2] = tested on: ivy-leaved morning glory (Ipomoea hederacea); experiment: Test G Post-Emergence Protocol; settings: Ipomoea, post-emergence, 312 h, read-out: Morningglory, Ivy-leaved damage rating; for pest or weed control at 15.625 g/ha: 15.625 g ai/ha, evaluated after 13 days (100=total damage to plant; 0=no damage to plant); for pest or weed control at 62.5 g/ha: 62.5 g ai/ha; for pest or weed control at 62.5 g/ha / pest or weed control at 250 g/ha: evaluated after 13 days, 100=total damage to plant, 0=no damage to plant; for pest or weed control at 250 g/ha: 250 g ai/ha
Outline: as §1

corn (Zea mays) [3] = experiment: Test G Post-Emergence Protocol; settings: Zea mays, post-emergence, 312 h, read-out: Corn damage rating; for plant injury at 15.625 g/ha: 15.625 g ai/ha, evaluated after 13 days (100=total damage to plant; 0=no damage to plant); for plant injury at 62.5 g/ha: 62.5 g ai/ha; for plant injury at 62.5 g/ha / plant injury at 250 g/ha: evaluated after 13 days, 100=total damage to plant, 0=no damage to plant; for plant injury at 250 g/ha: 250 g ai/ha
Outline: as §1

[4] = tested on: velvetleaf (Abutilon theophrasti); experiment: Test G Post-Emergence Protocol; settings: Abutilon theophrasti, post-emergence, 312 h, read-out: Velvetleaf damage rating; for pest or weed control at 15.625 g/ha: 15.625 g ai/ha, evaluated after 13 days (100=total damage to plant; 0=no damage to plant); for pest or weed control at 62.5 g/ha: 62.5 g ai/ha; for pest or weed control at 62.5 g/ha / pest or weed control at 250 g/ha: evaluated after 13 days, 100=total damage to plant, 0=no damage to plant; for pest or weed control at 250 g/ha: 250 g ai/ha
Outline: as §1

[5] = tested on: redroot pigweed (Amaranthus retroflexus); experiment: Test G Post-Emergence Protocol; settings: Amaranthus retroflexus, post-emergence, 312 h, read-out: Pigweed, Redroot damage rating; for pest or weed control at 15.625 g/ha: 15.625 g ai/ha, evaluated after 13 days (100=total damage to plant; 0=no damage to plant); for pest or weed control at 62.5 g/ha: 62.5 g ai/ha; for pest or weed control at 62.5 g/ha / pest or weed control at 250 g/ha: evaluated after 13 days, 100=total damage to plant, 0=no damage to plant; for pest or weed control at 250 g/ha: 250 g ai/ha
Outline: as §1

[6] = tested on: barnyardgrass (Echinochloa crus-galli); experiment: Test G Post-Emergence Protocol; settings: Echinochloa crus-galli, post-emergence, 312 h, read-out: Barnyardgrass damage rating; for pest or weed control at 15.625 g/ha: 15.625 g ai/ha, evaluated after 13 days (100=total damage to plant; 0=no damage to plant); for pest or weed control at 62.5 g/ha: 62.5 g ai/ha; for pest or weed control at 62.5 g/ha / pest or weed control at 250 g/ha: evaluated after 13 days, 100=total damage to plant, 0=no damage to plant; for pest or weed control at 250 g/ha: 250 g ai/ha
Outline: as §1

[7] = tested on: giant foxtail (Setaria faberi); experiment: Test G Pre-Emergence Protocol; settings: Setaria faberi, pre-emergence, 312 h, evaluated after 13 days; for pest or weed control at 15.625 g/ha: 15.625 g ai/ha; for pest or weed control at 15.625 g/ha / pest or weed control at 250 g/ha: read-out: Foxtail, Giant damage rating (100=total damage to plant; 0=no damage to plant); for pest or weed control at 62.5 g/ha: 62.5 g ai/ha, 100=total damage to plant, 0=no damage to plant, read-out: Foxtail, Giant damage rating; for pest or weed control at 250 g/ha: 250 g ai/ha
Outline: (§2)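 Glasshouse pre-emergence test: soil-sown seeds, sprayed after 1 d at 15.625, 62.5 or 250 g/ha. Conditions 24/16° C day/night, 14 h light, 65% humidity, watering twice daily. Rating 13 d post-spray (100 = total damage).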

[8] = tested on: ivy-leaved morning glory (Ipomoea hederacea); experiment: Test G Pre-Emergence Protocol; settings: Ipomoea, pre-emergence, 312 h, evaluated after 13 days; for pest or weed control at 15.625 g/ha: 15.625 g ai/ha; for pest or weed control at 15.625 g/ha / pest or weed control at 250 g/ha: read-out: Morningglory, Ivy-leaved damage rating (100=total damage to plant; 0=no damage to plant); for pest or weed control at 62.5 g/ha: 62.5 g ai/ha, 100=total damage to plant, 0=no damage to plant, read-out: Morningglory, Ivy-leaved damage rating; for pest or weed control at 250 g/ha: 250 g ai/ha
Outline: as §2

corn (Zea mays) [9] = experiment: Test G Pre-Emergence Protocol; settings: Zea mays, pre-emergence, 312 h, evaluated after 13 days; for plant injury at 15.625 g/ha: 15.625 g ai/ha; for plant injury at 15.625 g/ha / plant injury at 250 g/ha: read-out: Corn damage rating (100=total damage to plant; 0=no damage to plant); for plant injury at 62.5 g/ha: 62.5 g ai/ha, 100=total damage to plant, 0=no damage to plant, read-out: Corn damage rating; for plant injury at 250 g/ha: 250 g ai/ha
Outline: as §2

[10] = tested on: velvetleaf (Abutilon theophrasti); experiment: Test G Pre-Emergence Protocol; settings: Abutilon theophrasti, pre-emergence, 312 h, evaluated after 13 days; for pest or weed control at 15.625 g/ha: 15.625 g ai/ha; for pest or weed control at 15.625 g/ha / pest or weed control at 250 g/ha: read-out: Velvetleaf damage rating (100=total damage to plant; 0=no damage to plant); for pest or weed control at 62.5 g/ha: 62.5 g ai/ha, 100=total damage to plant, 0=no damage to plant, read-out: Velvetleaf damage rating; for pest or weed control at 250 g/ha: 250 g ai/ha
Outline: as §2

[11] = tested on: redroot pigweed (Amaranthus retroflexus); experiment: Test G Pre-Emergence Protocol; settings: Amaranthus retroflexus, pre-emergence, 312 h, evaluated after 13 days; for pest or weed control at 15.625 g/ha: 15.625 g ai/ha; for pest or weed control at 15.625 g/ha / pest or weed control at 250 g/ha: read-out: Pigweed, Redroot damage rating (100=total damage to plant; 0=no damage to plant); for pest or weed control at 62.5 g/ha: 62.5 g ai/ha, 100=total damage to plant, 0=no damage to plant, read-out: Pigweed, Redroot damage rating; for pest or weed control at 250 g/ha: 250 g ai/ha
Outline: as §2

[12] = tested on: barnyardgrass (Echinochloa crus-galli); experiment: Test G Pre-Emergence Protocol; settings: Echinochloa crus-galli, pre-emergence, 312 h, evaluated after 13 days; for pest or weed control at 15.625 g/ha: 15.625 g ai/ha; for pest or weed control at 15.625 g/ha / pest or weed control at 250 g/ha: read-out: Barnyardgrass damage rating (100=total damage to plant; 0=no damage to plant); for pest or weed control at 62.5 g/ha: 62.5 g ai/ha, 100=total damage to plant, 0=no damage to plant, read-out: Barnyardgrass damage rating; for pest or weed control at 250 g/ha: 250 g ai/ha
Outline: as §2

[13] = evaluated after 13 days, 100=total damage to plant, 0=no damage to plant

COc1ccc(C2CN(C)C(=O)C2C(=O)Nc2cccc(F)c2F)cc1C (stereo not shown) [Compound 1688]
10%: pest or weed control at 250 g/ha [4] | pest or weed control at 250 g/ha [5] | pest or weed control at 250 g/ha [8] | pest or weed control at 15.625 g/ha [10]
0%: pest or weed control at 15.625 g/ha [2] | plant injury at 15.625 g/ha (corn (Zea mays) [3]) | pest or weed control at 15.625 g/ha [4] | pest or weed control at 62.5 g/ha [4] | pest or weed control at 15.625 g/ha [5] | pest or weed control at 62.5 g/ha [5] | pest or weed control at 15.625 g/ha [8] | pest or weed control at 62.5 g/ha [8] | plant injury at 15.625 g/ha (corn (Zea mays) [9]) | pest or weed control at 62.5 g/ha [10]
20%: pest or weed control at 62.5 g/ha [2] | pest or weed control at 62.5 g/ha [11]
80%: pest or weed control at 62.5 g/ha [1, 13] | pest or weed control at 62.5 g/ha [7]
70%: pest or weed control at 62.5 g/ha [6] | pest or weed control at 15.625 g/ha [7] | plant injury at 250 g/ha (corn (Zea mays) [9]) | pest or weed control at 62.5 g/ha [12]
90%: pest or weed control at 250 g/ha [6] | pest or weed control at 250 g/ha [7] | pest or weed control at 250 g/ha [12]
30%: plant injury at 62.5 g/ha (corn (Zea mays) [3]) | pest or weed control at 15.625 g/ha [6] | pest or weed control at 15.625 g/ha [11]
50%: plant injury at 62.5 g/ha (corn (Zea mays) [9]) | pest or weed control at 250 g/ha [10] | pest or weed control at 15.625 g/ha [12]
60%: pest or weed control at 15.625 g/ha [1] | pest or weed control at 250 g/ha [2] | plant injury at 250 g/ha (corn (Zea mays) [3]) | pest or weed control at 250 g/ha [11]

CN1C[C@H](c2cccc(C(F)(F)F)c2)[C@@H](C(=O)Nc2ccc(O)cc2F)C1=O (racemic) [Compound 1785]
10%: pest or weed control at 250 g/ha [7]
0%: pest or weed control at 15.625 g/ha [1] | pest or weed control at 62.5 g/ha [1, 13] | pest or weed control at 15.625 g/ha [2] | pest or weed control at 62.5 g/ha [2] | pest or weed control at 250 g/ha [2] | plant injury at 15.625 g/ha (corn (Zea mays) [3]) | plant injury at 62.5 g/ha (corn (Zea mays) [3]) | plant injury at 250 g/ha (corn (Zea mays) [3]) | pest or weed control at 15.625 g/ha [4] | pest or weed control at 62.5 g/ha [4] | pest or weed control at 250 g/ha [4] | pest or weed control at 15.625 g/ha [5] | pest or weed control at 62.5 g/ha [5] | pest or weed control at 250 g/ha [5] | pest or weed control at 15.625 g/ha [6] | pest or weed control at 62.5 g/ha [6] | pest or weed control at 250 g/ha [6] | pest or weed control at 15.625 g/ha [7] | pest or weed control at 62.5 g/ha [7] | pest or weed control at 15.625 g/ha [8] | pest or weed control at 62.5 g/ha [8] | pest or weed control at 250 g/ha [8] | plant injury at 15.625 g/ha (corn (Zea mays) [9]) | plant injury at 62.5 g/ha (corn (Zea mays) [9]) | plant injury at 250 g/ha (corn (Zea mays) [9]) | pest or weed control at 15.625 g/ha [10] | pest or weed control at 62.5 g/ha [10] | pest or weed control at 250 g/ha [10] | pest or weed control at 15.625 g/ha [11] | pest or weed control at 62.5 g/ha [11] | pest or weed control at 15.625 g/ha [12] | pest or weed control at 62.5 g/ha [12] | pest or weed control at 250 g/ha [12]
20%: pest or weed control at 250 g/ha [11]

COc1cc(C2CN(C)C(=O)C2C(=O)Nc2cccc(F)c2F)cc(F)c1F (stereo not shown) [Compound 1706]
10%: pest or weed control at 62.5 g/ha [5] | plant injury at 62.5 g/ha (corn (Zea mays) [9]) | pest or weed control at 250 g/ha [10]
90%: pest or weed control at 250 g/ha [7]
50%: pest or weed control at 15.625 g/ha [7]
80%: pest or weed control at 62.5 g/ha [1, 13] | pest or weed control at 250 g/ha ([1]; 250 g ai/ha, evaluated after 13 days, 100=total damage to plant, 0=no damage to plant) | pest or weed control at 250 g/ha [6] | pest or weed control at 250 g/ha [12]
40%: pest or weed control at 15.625 g/ha [6] | plant injury at 250 g/ha (corn (Zea mays) [9]) | pest or weed control at 15.625 g/ha [12]
20%: pest or weed control at 15.625 g/ha [2] | pest or weed control at 62.5 g/ha [4] | pest or weed control at 250 g/ha [4] | pest or weed control at 250 g/ha [5] | pest or weed control at 250 g/ha [11]
70%: pest or weed control at 15.625 g/ha [1] | plant injury at 250 g/ha (corn (Zea mays) [3]) | pest or weed control at 62.5 g/ha [7]
60%: pest or weed control at 250 g/ha [2] | pest or weed control at 62.5 g/ha [6] | pest or weed control at 62.5 g/ha [12]
0%: pest or weed control at 62.5 g/ha [2] | plant injury at 15.625 g/ha (corn (Zea mays) [3]) | plant injury at 62.5 g/ha (corn (Zea mays) [3]) | pest or weed control at 15.625 g/ha [4] | pest or weed control at 15.625 g/ha [5] | pest or weed control at 15.625 g/ha [8] | pest or weed control at 62.5 g/ha [8] | pest or weed control at 250 g/ha [8] | plant injury at 15.625 g/ha (corn (Zea mays) [9]) | pest or weed control at 15.625 g/ha [10] | pest or weed control at 62.5 g/ha [10] | pest or weed control at 15.625 g/ha [11] | pest or weed control at 62.5 g/ha [11]
